# Reference: article PMC8600679, “Substituted Two- to Five-Ring Polycyclic Aromatic Compounds Are Potent Agonists of Atlantic Cod (Gadus morhua) Aryl Hydrocarbon Receptors Ahr1a and Ahr2a” (Environmental Science & Technology, 2021)
# Where two headings read alike, the source gives them in different places.
# Assays:
# Atlantic cod Ahr1a = Atlantic cod Ahr1a (Gadus morhua, UniProt A0A6H1Z2L5); assay: cell-based; settings: for Activation of Ahr1a (agonist or not): in vitro transactivation; for Ahr1a REP25: EC25 of TCDD divided by concentration of PAC giving 25% of TCDD response; for Efficacy compared to TCDD with Ahr1a: Welch's t-test, Supporting Table S6
# Chain of Atlantic cod Ahr1a (A0A6H1Z2L5 1-957): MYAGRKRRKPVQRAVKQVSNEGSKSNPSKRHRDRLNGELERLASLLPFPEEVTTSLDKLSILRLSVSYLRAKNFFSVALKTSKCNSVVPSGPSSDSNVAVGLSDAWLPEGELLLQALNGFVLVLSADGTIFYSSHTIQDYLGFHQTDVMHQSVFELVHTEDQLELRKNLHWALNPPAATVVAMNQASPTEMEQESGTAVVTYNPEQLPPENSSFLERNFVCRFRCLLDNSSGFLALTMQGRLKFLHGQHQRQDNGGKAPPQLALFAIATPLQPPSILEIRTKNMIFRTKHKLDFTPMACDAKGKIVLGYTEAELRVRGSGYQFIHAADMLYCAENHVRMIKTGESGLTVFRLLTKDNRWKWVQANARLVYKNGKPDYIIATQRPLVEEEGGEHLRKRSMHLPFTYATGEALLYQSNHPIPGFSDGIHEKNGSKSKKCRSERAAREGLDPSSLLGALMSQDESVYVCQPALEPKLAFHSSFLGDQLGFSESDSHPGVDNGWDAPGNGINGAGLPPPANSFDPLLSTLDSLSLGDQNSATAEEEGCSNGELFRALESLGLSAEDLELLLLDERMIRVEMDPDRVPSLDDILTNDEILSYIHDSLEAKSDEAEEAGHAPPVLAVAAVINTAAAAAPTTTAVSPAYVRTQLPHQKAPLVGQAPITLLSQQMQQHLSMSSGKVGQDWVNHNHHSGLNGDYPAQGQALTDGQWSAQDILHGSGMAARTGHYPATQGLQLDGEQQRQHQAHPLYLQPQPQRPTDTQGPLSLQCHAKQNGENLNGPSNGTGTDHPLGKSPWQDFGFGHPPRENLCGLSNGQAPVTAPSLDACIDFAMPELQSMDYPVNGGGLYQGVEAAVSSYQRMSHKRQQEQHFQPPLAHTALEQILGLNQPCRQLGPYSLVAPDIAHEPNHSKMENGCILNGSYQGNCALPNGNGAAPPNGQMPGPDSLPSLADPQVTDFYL
# Chain of Atlantic cod Ahr1a (A0A8C5CZZ9 1-645 partner): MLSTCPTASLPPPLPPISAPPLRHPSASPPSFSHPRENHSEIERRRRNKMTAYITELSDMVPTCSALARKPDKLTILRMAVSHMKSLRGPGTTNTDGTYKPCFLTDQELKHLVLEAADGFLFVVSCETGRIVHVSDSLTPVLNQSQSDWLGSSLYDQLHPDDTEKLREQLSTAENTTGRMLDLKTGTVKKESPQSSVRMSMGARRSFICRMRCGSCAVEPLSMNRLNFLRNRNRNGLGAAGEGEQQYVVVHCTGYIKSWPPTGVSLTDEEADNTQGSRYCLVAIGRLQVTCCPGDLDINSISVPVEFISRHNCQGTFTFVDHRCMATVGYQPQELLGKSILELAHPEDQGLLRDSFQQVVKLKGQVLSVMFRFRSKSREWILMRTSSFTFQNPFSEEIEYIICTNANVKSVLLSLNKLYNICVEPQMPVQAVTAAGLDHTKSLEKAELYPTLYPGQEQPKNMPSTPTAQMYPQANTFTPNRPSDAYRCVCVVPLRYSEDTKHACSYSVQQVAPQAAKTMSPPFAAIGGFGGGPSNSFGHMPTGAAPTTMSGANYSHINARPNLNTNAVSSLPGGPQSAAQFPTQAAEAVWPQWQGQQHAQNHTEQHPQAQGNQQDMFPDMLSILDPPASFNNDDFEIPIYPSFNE
# Atlantic cod Ahr2a = molecular target: T1, Atlantic cod Ahr2a (Gadus morhua, UniProt A0A6H1Z3G8); assay: cell-based; settings: for Activation of Ahr2a (agonist or not): in vitro transactivation; for Ahr2a REP25: EC25 of TCDD divided by concentration of PAC giving 25% of TCDD response; for Efficacy compared to TCDD via Ahr2a: Welch's t-test, Supporting Table S6
# T1 sequence (A0A6H1Z3G8 1-1127): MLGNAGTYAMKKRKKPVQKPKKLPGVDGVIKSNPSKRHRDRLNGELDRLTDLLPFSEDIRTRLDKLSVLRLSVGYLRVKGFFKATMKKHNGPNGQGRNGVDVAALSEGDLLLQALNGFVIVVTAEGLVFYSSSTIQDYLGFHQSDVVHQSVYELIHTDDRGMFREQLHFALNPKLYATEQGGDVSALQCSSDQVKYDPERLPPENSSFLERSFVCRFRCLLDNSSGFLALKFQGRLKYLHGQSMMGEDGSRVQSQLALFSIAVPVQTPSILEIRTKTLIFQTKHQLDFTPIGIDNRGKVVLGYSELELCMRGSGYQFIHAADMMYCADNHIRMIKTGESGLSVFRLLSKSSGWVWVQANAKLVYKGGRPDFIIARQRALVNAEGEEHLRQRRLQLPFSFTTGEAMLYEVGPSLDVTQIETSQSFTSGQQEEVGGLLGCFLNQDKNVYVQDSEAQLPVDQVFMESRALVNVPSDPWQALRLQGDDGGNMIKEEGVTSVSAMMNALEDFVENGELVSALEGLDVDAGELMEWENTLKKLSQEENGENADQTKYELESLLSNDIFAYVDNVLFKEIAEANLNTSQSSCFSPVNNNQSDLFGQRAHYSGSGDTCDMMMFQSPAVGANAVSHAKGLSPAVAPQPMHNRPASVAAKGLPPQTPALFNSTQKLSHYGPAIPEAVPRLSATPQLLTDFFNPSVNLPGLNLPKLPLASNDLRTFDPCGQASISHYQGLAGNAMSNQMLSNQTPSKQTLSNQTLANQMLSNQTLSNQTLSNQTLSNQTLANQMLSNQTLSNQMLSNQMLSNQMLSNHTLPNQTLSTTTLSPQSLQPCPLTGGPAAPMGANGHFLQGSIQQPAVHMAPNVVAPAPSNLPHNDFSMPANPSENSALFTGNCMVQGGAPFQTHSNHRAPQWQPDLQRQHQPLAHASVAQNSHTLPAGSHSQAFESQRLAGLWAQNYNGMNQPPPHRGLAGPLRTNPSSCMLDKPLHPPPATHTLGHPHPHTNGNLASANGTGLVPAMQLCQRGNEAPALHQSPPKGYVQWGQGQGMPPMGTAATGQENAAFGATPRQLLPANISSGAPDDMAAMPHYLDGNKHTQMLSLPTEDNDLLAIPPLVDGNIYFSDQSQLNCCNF
# [1] = percent of maximum efficacy determined for TCDD, COS-7 cells, 24 h exposure, None = no agonistic response significantly different from solvent
# [2] = COS-7 cells, 24 h exposure, read-out: Ahr1a EC50
# [3] = Supplementary Table S5, read-out: Potency (EC50, nM) Ahr1a
# [4] = percent of maximum efficacy determined for TCDD, COS-7 cells, 24 h exposure, None = no agonistic response significantly different from solvent, read-out: Ahr1a Relative Emax (%)
# [5] = COS-7 cells, 24 h exposure, read-out: Ahr2a EC50
# [6] = Supplementary Table S5, read-out: Potency (EC50, nM) Ahr2a
# [7] = percent of maximum efficacy determined for TCDD, COS-7 cells, 24 h exposure, None = no agonistic response significantly different from solvent, read-out: Ahr2a Relative Emax (%)
# [8] = Ahr1a EC50 (nM), COS-7 cells, 24 h exposure
# [9] = COS-7, read-out: Ahr1a Relative Emax (%)
# [10] = Ahr2a EC50 (nM), COS-7 cells, 24 h exposure
# [11] = COS-7, read-out: Ahr2a Relative Emax (%)
# [12] = COS-7, Supplementary Table S5, read-out: Efficacy (Emax, %) Ahr1a
# [13] = COS-7, Supplementary Table S5, read-out: Efficacy (Emax, %) Ahr2a
Structure (SMILES),Activation of Ahr1a (agonist or not) (Atlantic cod Ahr1a),Ahr1a Relative Emax (%) (Atlantic cod Ahr1a; [1]),Activation of Ahr2a (agonist or not) (Atlantic cod Ahr2a),Ahr2a Relative Emax (%) (Atlantic cod Ahr2a; [1]),Ahr1a REP25 (Atlantic cod Ahr1a),Efficacy compared to TCDD with Ahr1a (Atlantic cod Ahr1a),Emax (Atlantic cod Ahr1a; [4]),Emax (Atlantic cod Ahr2a; [7]),also measured
"Cc1ccc(C)c2c1ccc1ccccc12 [1,4-DMP, 1,4-Dimethylphenanthrene]",did not activate,None,did not activate,None,,,,,
"Cc1ccc2c(ccc3c(C)cccc32)c1 [1,7-DMP, 1,7-Dimethylphenanthrene]",did not activate,None,did not activate,None,,,,,
"COc1cccc2c1ccc1c3ccccc3ccc21 [1-MOC, 1-Methoxychrysene]",,,,,0.0277,efficacies similar to that of TCDD,97.3%,66.4%,EC50 (Atlantic cod Ahr1a; [2]): 102 nM; EC50 (Atlantic cod Ahr1a; [3]): 102 nM; EC50 (Atlantic cod Ahr2a; [5]): 160 nM; Ahr2a REP25 (Atlantic cod Ahr2a): 0.0243; EC50 (Atlantic cod Ahr2a; [6]): 160 nM; Efficacy compared to TCDD via Ahr2a (Atlantic cod Ahr2a): lower efficacies in comparison to TCDD
"Cc1ccc2c(ccc3cc(C)ccc32)c1 [2,7-DMP, 2,7-Dimethylphenanthrene]",did not activate,None,did not activate,None,,,,,
"Oc1ccc2c(ccc3c4ccccc4ccc23)c1 [2-COH, Chrysene-2-ol]",,,,,0.00268,efficacies similar to that of TCDD,,,"EC50 (Atlantic cod Ahr1a; [8]): 325 nM; Emax (Atlantic cod Ahr1a; [9]): 91.1%; EC50 (Atlantic cod Ahr1a; Potency (EC50, nM) Ahr1a, Supplementary Table S5): 324 nM; EC50 (Atlantic cod Ahr2a; [10]): 380 nM; Emax (Atlantic cod Ahr2a; [11]): 40.8%; Ahr2a REP25 (Atlantic cod Ahr2a): 0.0038; Efficacy compared to TCDD via Ahr2a (Atlantic cod Ahr2a): lower efficacies in comparison to TCDD"
"Cc1ccc2c(ccc3c4ccccc4ccc23)c1 [2-MC, 2-Methylchrysene]",,,,,0.324,higher efficacies (superefficacies) than TCDD,125%,127%,Emax (Atlantic cod Ahr1a; [12]): 125%; EC50 (Atlantic cod Ahr1a; [2]): 22 nM; Emax (Atlantic cod Ahr2a; [13]): 127%; EC50 (Atlantic cod Ahr2a; [5]): 41.8 nM; Efficacy compared to TCDD via Ahr2a (Atlantic cod Ahr2a): superefficacies
"COc1ccc2c(ccc3c4ccccc4ccc23)c1 [2-MOC, 2-Methoxychrysene]",,,,,0.244,efficacies similar to that of TCDD,95.9%,115%,EC50 (Atlantic cod Ahr1a; [2]): 13 nM; Emax (Atlantic cod Ahr2a; [13]): 114%; EC50 (Atlantic cod Ahr2a; [5]): 20.1 nM; Efficacy compared to TCDD via Ahr2a (Atlantic cod Ahr2a): superefficacies
"Cc1ccc2ccc3ccc(C)cc3c2c1 [3,6-DMP, 3,6-Dimethylphenanthrene]",did not activate,None,did not activate,None,,,,,
"CCc1ccc2ccc3ccccc3c2c1 [3-EP, 3-Ethylphenanthrene]",did not activate,None,did not activate,None,,,,,
"Cc1ccc2ccc3c4ccccc4ccc3c2c1 [3-MC, 3-Methylchrysene]",,,,,0.0413,efficacies similar to that of TCDD,111%,102%,Emax (Atlantic cod Ahr1a; [12]): 110%; EC50 (Atlantic cod Ahr1a; [3]): 101 nM; Emax (Atlantic cod Ahr2a; [13]): 102%; EC50 (Atlantic cod Ahr2a; [5]): 54 nM; Ahr2a REP25 (Atlantic cod Ahr2a): 0.167
"CCCc1ccc2ccc3ccccc3c2c1 [3-PP, 3-Propylphenanthrene]",activated both Ahr1a and Ahr2a,,activated both Ahr1a and Ahr2a,,0.00011,,,12.4%,"Emax (Atlantic cod Ahr1a; COS-7, curve did not reach a plateau: relative response at the highest tested concentration, percent of TCDD maximum, read-out: Ahr1a Relative Emax (%), marked *): 42.5%"
"Oc1cccc2ccc3c4ccccc4ccc3c12 [4-COH, Chrysene-4-ol]",,,,,0.00105,efficacies similar to that of TCDD,91.7%,,"EC50 (Atlantic cod Ahr1a; [2]): 1340 nM; Emax (Atlantic cod Ahr2a; COS-7, curve did not reach a plateau: relative response at the highest tested concentration, percent of TCDD maximum, read-out: Ahr2a Relative Emax (%), marked *): 98.8%; Ahr2a REP25 (Atlantic cod Ahr2a): 0.0016; EC50 (Atlantic cod Ahr2a; [6]): 11000 nM"
"Cc1cccc2ccc3c4ccccc4ccc3c12 [4-MC, 4-Methylchrysene]",,,,,0.041,higher efficacies (superefficacies) than TCDD,113%,55.9%,Emax (Atlantic cod Ahr1a; [12]): 112%; EC50 (Atlantic cod Ahr1a; [2]): 120 nM; EC50 (Atlantic cod Ahr2a; [5]): 128 nM; Ahr2a REP25 (Atlantic cod Ahr2a): 0.0217; EC50 (Atlantic cod Ahr2a; [6]): 128 nM; Efficacy compared to TCDD via Ahr2a (Atlantic cod Ahr2a): lower efficacies in comparison to TCDD
"c1ccc2c(c1)cc1ccc3cccc4ccc2c1c34 [BAP, Benzo[a]pyrene]",agonist for both Ahrs,,agonist for both Ahrs,,0.0956,higher efficacies (superefficacies) than TCDD,,,"EC50 (Atlantic cod Ahr1a; [8]): 25.8 nM; Emax (Atlantic cod Ahr1a; [9]): 107%; Emax (Atlantic cod Ahr1a; COS-7, read-out: Efficacy (Emax, %) Ahr1a): 107%; EC50 (Atlantic cod Ahr2a; [10]): 6.8 nM; fold higher REP25 with Ahr2a compared to Ahr1a (Atlantic cod Ahr2a; Ahr2a versus Ahr1a): 5- to 10 fold; Emax (Atlantic cod Ahr2a; [11]): 103%; Emax (Atlantic cod Ahr2a; COS-7, read-out: Efficacy (Emax, %) Ahr2a): 103%"
"c1ccc2c(c1)sc1ccccc12 [DBT, Dibenzothiophene]",did not activate,None,did not activate,None,,,,,
"c1ccc2c(c1)Cc1ccccc1-2 [FLU, Fluorene]",did not activate,None,did not activate,None,,,,,
"c1ccc2ccccc2c1 [NAP, Naphthalene]",did not activate,None,did not activate,None,,,,,
"c1ccc2c(c1)ccc1ccccc12 [PHE, Phenanthrene]",did not activate,None,did not activate,None,,,,,
